Experimental data from EP4029501A1, “COMBINATION OF POLYAROMATIC UREA DERIVATIVES AND GLUCOCORTICOID OR HDAC INHIBITOR FOR THE TREATMENT OF DISEASES OR CONDITIONS ASSOCIATED WITH MUSCLE CELLS AND/OR SATELLITE CELLS” (Anagenesis Biotechnologies, priority 2021, dated 2022).

System: muscle progenitors derived from DMD hiPSC
Assay: Myotube assay: total myotube area per well (alpha-actinin staining)
Assay type: cell-based, human
Conditions: Homo sapiens, Myotube, 72 h, DMD or WT cell source not given; for Emax: efficacy, MA = normalized Myotube Area, 3 days incubation; for EC50: myogenic activity, half-maximal generation of myotubes, 10 points dose-response 1.5 nM to 30 µM, 3 days
Experimental: An in vitro assay for assessing the efficacy of compounds for use in treating, ameliorating, delaying, curing and/or preventing a disease or condition associated with muscle cells and/or satellite cells is described in example 78. Herein, the generation of myotubes and satellite cells after adding a compound to a myotube assay workflow is assessed. Said myotube assay workflow is derived from wild-type or DMD human induced pluripotent stem cells (WT hiPSC or DMD hiPSC). Before the addition of said compound, the assay comprises satellite-like cells, but no significant amount of myotubes.
The efficacy of said compound for use in treating, ameliorating, delaying, curing and/or preventing a disease or condition associated with muscle cells and/or satellite cells is positively correlated with the generation of myotubes (i.e. the increase of the area occupied by myotubes on the assay) and/or satellite cells (i.e. the increase of the number of satellite cells) in the assay after adding said compound. The generation of myotubes by the addition of said compound is expressed as the EC50 value, the concentration of said compound that corresponds with the half-maximal generation of myotubes, and the MA (normalized myotube area) value, the normalized area occupied by generated myotubes on the assay. […] Since muscle cells are formed from myotubes during myogenesis, the generation of myotubes in the assay is a good indicator of the ability of said compound to induce the formation of functional muscle cells in vivo. The number of satellite cells is measured as the percentage of Pax7 positive cells, relative to the total number of cells in the assay, as shown in Figure 3. The percentage of Pax7 is a good indicator of the ability of said compound to induce the formation of satellite cells which are able to play a role in muscle repair and regeneration in vivo.
DMD human induced pluripotent stem cells (hereafter "DMD hiPSC"), generated from the NCRM-1 hiPSC WT cell line by gene editing, or WT human induced pluripotent stem cells (hereafter "WT hiPSC"), being NCRM-1 hiPSC wt cell line, have been differentiated according to Chal et al. 2015, 2016, to produce muscle progenitors (hereafter "hMP"). The hMP population contains satellite-like cells (i.e Pax7-positive cells) and satellite cells' progenies (i.e. Myogenin-positive cells).
Figure 1 provides an example of a Myotube assay workflow. At day 0, hMP are thawed and 3.1 million cells are plated into a T75-flask coated with hESC-qualified Matrigel™ (Corning) in SkGM proliferating medium (PromoCells), supplemented with 5 µM Y-27632 (Tocris Bioscience). On day 2, SkGM proliferating medium is refreshed. On day 4, hMP are harvested and transferred into a 384-well plate coated with collagen type I at a density of 3500 cells/well in a DMEM-based medium, containing 5% of knockout serum replacement (Gibco), 1% PenStrep (Gibco), 1% MEM NEAA (Gibco) and 0.1 mM 2-mercaptoethanol (Gibco) (hereafter "K5 medium") and 5 µM Y-27632. Compounds to be tested are then added in the medium and incubated for 3 days at 37°C. On day 7, cells are fixed and immunostained. For example, myotubes (alpha-actinin staining) and satellite-like (Pax7 staining) cells can be analyzed for total myotube area per well or Pax7-positive cell quantification.
DMD hMP were put in the Myotube assay according to the workflow described in Example 2.1. In particular, compound (i) was added at concentrations ranging from 1.5 nM to 30 µM, starting from day 4. hMP were cultivated for three more days in presence of compound (i), then fixed and analyzed for quantification of total myotube area per well. Duplicates of each condition were averaged.

Row | EC50 [nM] | SMILES | Emax [%]
1 | 1000 to 5000 | CC(C)(C)c1cc(NC(=O)Nc2ccc(Oc3ccc(F)cc3)cc2F)n(-c2ccccc2)n1 [(af), 1-(3-(tert-butyl)-1-phenyl-1 H-pyrazol-5-yl)-3-(2-fluoro-4-(4-fluorophenoxy)phenyl)urea] | 25 to 50
2 | ≥ 5000 | CNC(=O)c1cc(Oc2ccc(NC(=O)Nc3cc(C(C)(C)C)nn3-c3ccccc3)c(SC)c2)ccn1 [(br), 4-(4-(3-(3-(tert-butyl)-1-phenyl-1H-pyrazol-5-yl)ureido)-3-(methylthio)phenoxy)-N-methylpicolinamide] | ≥ 75
3 | ≥ 5000 | CSc1cc(Oc2ccnc3[nH]c(=O)cnc23)ccc1NC(=O)Nc1nnc(C(C)(C)C)o1 [(cj), 1-(5-(tert-butyl)-1,3,4-oxadiazol-2-yl)-3-(2-(methylthio)-4-((3-oxo-3,4-dihydropyrido[2,3-b]pyrazin-8-yl)oxy)phenyl)urea] | ≥ 75
4 | 500 to 1000 | CC(C)(C)c1cc(NC(=O)Nc2ccc(Oc3ccncc3)cc2F)n(-c2ccccc2)n1 [(ad), 1-(3-(tert-butyl)-1-phenyl-1H-pyrazol-5-yl)-3-(2-fluoro-4-(pyridin-4-yloxy)phenyl)urea] | 25 to 50
5 | ≥ 5000 | CSc1cc(Oc2ccncc2)ccc1NC(=O)Nc1cc(C(C)(C)C)nn1-c1ccccc1 [(dk), 1-(3-(tert-butyl)-1-phenyl-1 H-pyrazol-5-yl)-3-(2-(methylthio)-4-(pyridin-4-yloxy)phenyl)urea] | 25 to 50
6 | ≥ 5000 | CC(C)(C)c1cc(NC(=O)Nc2ccc(Oc3ccnc4[nH]c(=O)cnc34)cc2Cl)n(-c2ccccc2)n1 [(ak), 1-(3-(tert-butyl)-1-phenyl-1H-pyrazol-5-yl)-3-(2-chloro-4-((3-oxo-3,4-dihydropyrido[2,3-b]pyrazin-8-yl)oxy)phenyl)urea] | ≥ 75
7 | < 500 | CC(C)(C)c1cc(NC(=O)Nc2ccc(Oc3ccnc4[nH]c(=O)cnc34)c3ccccc23)n(-c2ccc3ncccc3c2)n1 [(bb), 1-(3-(tert-butyl)-1-(quinolin-6-yl)-1 H-pyrazol-5-yl)-3-(4-((3-oxo-3,4-dihydropyrido[2,3-b]pyrazin-8-yl)oxy)naphthalen-1-yl)urea] | ≥ 75
8 | < 500 | CSc1cc(Oc2ccnc3[nH]c(=O)ccc23)ccc1NC(=O)Nc1cc(C(C)(C)C)nn1-c1ccccc1 [(do), 1-(3-(tert-butyl)-1-phenyl-1H-pyrazol-5-yl)-3-(2-(methylthio)-4-((7-oxo-7,8-dihydro-1,8-naphthyridin-4-yl)oxy)phenyl)urea] | ≥ 75
9 | ≥ 5000 | CSc1cc(Oc2ccnc(C(=O)Nc3ccccc3)c2)ccc1NC(=O)Nc1cc(C(C)(C)C)nn1-c1ccccc1 [(co), 4-(4-(3-(3-(tert-butyl)-1-phenyl-1H-pyrazol-5-yl)ureido)-3-(methylthio)phenoxy)-N-phenylpicolinamide] | 25 to 50
10 | 500 to 1000 | CC(C)(C)c1cc(NC(=O)Nc2cc(F)c(Oc3ccnc4[nH]c(=O)cnc34)cc2F)n(-c2ccccc2)n1 [(bt), 1-(3-(tert-butyl)-1-phenyl-1 H-pyrazol-5-yl)-3-(2,5-difluoro-4-((3-oxo-3,4-dihydropyrido[2,3-b]pyrazin-8-yl)oxy)phenyl)urea] | ≥ 75
11 | 1000 to 5000 | CSc1cc(Oc2ccnc(NS(C)(=O)=O)c2)ccc1NC(=O)Nc1cc(C(C)(C)C)no1 [(dl), N-(4-(4-(3-(3-(tert-butyl)isoxazol-5-yl)ureido)-3-(methylthio)phenoxy)pyridin-2-yl)methanesulfonamide] | ≥ 75
12 | 1000 to 5000 | O=C(Nc1ccc(Oc2ccnc3[nH]c(=O)cnc23)cc1F)Nc1cc(C2(C(F)(F)F)CC2)nn1-c1ccccc1 [(d), 1-(2-fluoro-4-((3-oxo-3,4-dihydropyrido[2,3-b]pyrazin-8-yl)oxy)phenyl)-3-(1-phenyl-3-(1-(trifluoromethyl)cyclopropyl)-1 H-pyrazol-5-yl)urea] | 50 to 75

The next lines start with the molecule.

Row | SMILES | EC50 [nM] | Emax [%]
13 | CSc1cc(Oc2ccnc3[nH]c(=O)cnc23)ccc1NC(=O)Nc1cc(C(C)(C)C)nn1C1CCCCC1 [(bn), 1-(3-(tert-butyl)-1-cyclohexyl-1H-pyrazol-5-yl)-3-(2-(methylthio)-4-((3-oxo-3,4-dihydropyrido[2,3-b]pyrazin-8-yl)oxy)phenyl)urea] | ≥ 5000 | 50 to 75
14 | CC(C)(C)c1cc(NC(=O)Nc2ccc(Oc3ccnc4[nH]c(=O)cnc34)cc2F)n(-c2ccc3ncccc3c2)n1 [(n), 1-(3-(tert-butyl)-1-(quinolin-6-yl)-1 H-pyrazol-5-yl)-3-(2-fluoro-4-((3-oxo-3,4-dihydropyrido[2,3-b]pyrazin-8-yl)oxy)phenyl)urea] | < 500 | ≥ 75
15 | CSc1cc(Oc2ccnc3[nH]c(=O)cnc23)ccc1NC(=O)Nc1nc(C(C)(C)C)cs1 [(ca), 1-(4-(tert-butyl)thiazol-2-yl)-3-(2-(methylthio)-4-((3-oxo-3,4-dihydropyrido[2,3-b]pyrazin-8-yl)oxy)phenyl)urea] | ≥ 5000 | ≥ 75
16 | CNC(=O)c1cc(Oc2ccc(NC(=O)Nc3cc(C(C)(C)C)nn3-c3ccc4ncccc4c3)c(SC)c2)ccn1 [(ag), 4-(4-(3-(3-(tert-butyl)-1-(quinolin-6-yl)-1H-pyrazol-5-yl)ureido)-3-(methylthio)phenoxy)-N-methylpicolinamide] | 1000 to 5000 | ≥ 75
17 | CSc1cc(Oc2ccnc3[nH]c(=O)cnc23)ccc1NC(=O)Nc1cc(C(C)(C)C)nn1-c1ccc(OCCN2CCCCC2)cc1 [(ce), 1-(3-(tert-butyl)-1-(4-(2-(piperidin-1-yl)ethoxy)phenyl)-1H-pyrazol-5-yl)-3-(2-(methylthio)-4-((3-oxo-3,4-dihydropyrido[2,3-b]pyrazin-8-yl)oxy)phenyl)urea] | < 500 | ≥ 75
18 | CC(C)(C)c1cc(NC(=O)Nc2ccc(Oc3ccnc4[nH]c(=O)cnc34)cn2)n(-c2ccccc2)n1 [(u), 1-(3-(tert-butyl)-1-phenyl-1 H-pyrazol-5-yl)-3-(5-((3-oxo-3,4-dihydropyrido[2,3-b]pyrazin-8-yl)oxy)pyridin-2-yl)urea] | 1000 to 5000 | 25 to 50
19 | CSc1cc(Oc2ccnc3c2CCC(=O)N3)ccc1NC(=O)Nc1cc(C(C)(C)C)nn1-c1cccc(Cl)c1 [(bz), 1-(3-(tert-butyl)-1-(3-chlorophenyl)-1H-pyrazol-5-yl)-3-(2-(methylthio)-4-((7-oxo-5,6,7,8-tetrahydro-1,8-naphthyridin-4-yl)oxy)phenyl)urea] | < 500 | ≥ 75
20 | CSc1cc(Oc2ccnc3c2CCC(=O)N3)ccc1NC(=O)Nc1cc(C(C)(C)C)nn1-c1ccc(C)cc1 [(by), 1-(3-(tert-butyl)-1-(p-tolyl)-1H-pyrazol-5-yl)-3-(2-(methylthio)-4-((7-oxo-5,6,7,8-tetrahydro-1,8-naphthyridin-4-yl)oxy)phenyl)urea] | < 500 | ≥ 75
21 | CCOC(=O)Nc1cc(Oc2ccc(NC(=O)Nc3ncc(C(C)(C)C)s3)c(SC)c2)ccn1 [(df), ethyl (4-(4-(3-(5-(tert-butyl)thiazol-2-yl)ureido)-3-(methylthio)phenoxy)pyridin-2-yl)carbamate] | < 500 | ≥ 75
22 | CC(C)(C)c1cc(NC(=O)Nc2ccc(Oc3ccnc4[nH]c(=O)cnc34)cc2F)n(Cc2ccccc2)n1 [(j), 1-(1-benzyl-3-(tert-butyl)-1 H-pyrazol-5-yl)-3-(2-fluoro-4-((3-oxo-3,4-dihydropyrido[2,3-b]pyrazin-8-yl)oxy)phenyl)urea] | 1000 to 5000 | 50 to 75
23 | CC(C)c1cc(Oc2ccnc3[nH]c(=O)cnc23)ccc1NC(=O)Nc1cc(C(C)(C)C)nn1-c1ccccc1 [(bk), 1-(3-(tert-butyl)-1-phenyl-1H-pyrazol-5-yl)-3-(2-isopropyl-4-((3-oxo-3,4-dihydropyrido[2,3-b]pyrazin-8-yl)oxy)phenyl)urea] | ≥ 5000 | ≥ 75
